Test results published in patent publication US8815535B2, “Disk diffusion assay for oritavancin” (The Medicines Company, priority 2011, dated 2014).
Where two headings read alike, the source gives them in different places.

Experiments:
Test in all cases: Disk diffusion assay (zone of inhibition)
Format in all cases: cell-based, Staphylococcus aureus
VISA Mu50 (ATCC 700699) = details: for zone of inhibition at 360 µg/disc: ATCC 700699; for zone of inhibition at 100 µg/disc: 100 μg in 4% P80/Span 80 (1:1); for zone of inhibition at 200 µg/disc: 200 μg in 4% P80/Span 80 (1:1)
Excerpt: The study was designed to identify conditions that improve oritavancin diffusion in agar and consequently yield a zone diameter ≧15 mm for the CLSI quality control strain MSSA ATCC 25923. Excipients that increased the disk diffusion of oritavancin in agar relative to disks containing only oritavancin were identified and selected for further study. […] A prediffusion step at room temperature was introduced to maximize oritavancin diffusion prior to initiation of bacterial growth. […] Plates were then incubated overnight at 37° C. Zone diameters around the disks in which bacterial growth was inhibited were measured with a ruler and reported in millimeters.
Ethanol-sterilized Whatman paper disks (6 mm diameter) were allowed to dry then impregnated with 20 microliters of oritavancin solution containing total amounts ranging from 90 to 360 micrograms. Disks were allowed to dry at room temperature for various times prior to use.
Bacterial suspensions were prepared and adjusted to an optical density of 0.1 at 600 nm. Standard cation-adjusted Mueller Hinton agar plates (90 mm diameter) were seeded with bacterial suspensions by initially swabbing the center of plate then moving outward towards the edge. The plate was swabbed a second time, perpendicular to the orientation of the first swab. […] After 3 hours, two additional disks were placed on the other half of the plate then the plate was incubated overnight at 37° C. Zone diameters were measured with a ruler and reported in millimeters.
(§1) Oritavancin powder was dissolved in freshly-prepared solutions of the indicated excipients at concentrations of 0.625, 1.25, 2.5, 5, and 10 mg/ml (adjusted for potency based on lot 875561L00 purity of 83.1%) by vortexing for a minimum of 5 minutes. Oritavancin solutions in the various excipients, while not visually clear, were free from any apparent particulates as assessed visually. Sterile Oxoid blank disks were impregnated with 20 μl of these oritavancin solutions, resulting in oritavancin disk loads ranging from 12.5 to 200 μg. Unless indicated otherwise, disks were allowed to dry overnight at room temperature prior to use.
(§2) Bacterial suspensions from isolated colonies on overnight cation-adjusted Mueller Hinton agar plates were prepared in sterile saline and adjusted to an optical density of 0.1 at 600 nm Standard cation-adjusted Mueller Hinton agar plates (90 mm diameter) were seeded with bacterial suspensions by initially swabbing the center of plate then moving outward. Swabbing was continued at a right angle and then at an oblique angle to the first and second swabs. Disks were placed upon the seeded plates with sterile forceps. Plates were then incubated overnight at 37° C. and inhibition zone diameters were measured with a ruler and reported in millimeters.

MRSA Q141067 = details: 20 μl of 1.25 mg/ml in 4% P80/Span 80 (1:1), calcium alginate swabs, dried overnight, duplicate
Method: as §1, §2

MRSA Q670505 = details: 20 μl of 1.25 mg/ml in 4% P80/Span 80 (1:1), calcium alginate swabs, dried overnight, duplicate
Method: as §1, §2

MRSA Q670607 = details: 20 μl of 1.25 mg/ml in 4% P80/Span 80 (1:1), calcium alginate swabs, dried overnight, duplicate
Method: as §1, §2

MRSA U260847 = details: 20 μl of 1.25 mg/ml in 4% P80/Span 80 (1:1), calcium alginate swabs, dried overnight, duplicate
Method: as §1, §2

MRSA U933237 = details: 20 μl of 1.25 mg/ml in 4% P80/Span 80 (1:1), calcium alginate swabs, dried overnight, duplicate
Method: as §1, §2

MRSA V257345 = details: 20 μl of 1.25 mg/ml in 4% P80/Span 80 (1:1), calcium alginate swabs, dried overnight, duplicate
Method: as §1, §2

MSSA S815246 = details: 20 μl of 1.25 mg/ml in 4% P80/Span 80 (1:1), calcium alginate swabs, dried overnight, duplicate
Method: as §1, §2

MSSA S815247 = details: 20 μl of 1.25 mg/ml in 4% P80/Span 80 (1:1), calcium alginate swabs, dried overnight, duplicate
Method: as §1, §2

MSSA T811355 = details: 20 μl of 1.25 mg/ml in 4% P80/Span 80 (1:1), calcium alginate swabs, dried overnight, duplicate
Method: as §1, §2

MSSA U781969 = details: 20 μl of 1.25 mg/ml in 4% P80/Span 80 (1:1), calcium alginate swabs, dried overnight, duplicate
Method: as §1, §2

MSSA U933236 = details: 20 μl of 1.25 mg/ml in 4% P80/Span 80 (1:1), calcium alginate swabs, dried overnight, duplicate
Method: as §1, §2

hVISA NRS36 = details: 25 μg (1.25 mg/ml) in 4% P80/Span 80 (1:1), dried overnight
Method: as §1, §2

[1] = Staphylococcus aureus, Mu50, calcium alginate swab, dried overnight, read-out: Inhibition zone diameter
[2] = Staphylococcus aureus, Mu50, cotton swab, dried overnight, estimate of diameter
[3] = Staphylococcus aureus, MRSA, read-out: Inhibition zone diameter
[4] = Staphylococcus aureus, MSSA, read-out: Inhibition zone diameter

CN[C@H](CC(C)C)C(=O)N[C@H]1C(=O)N[C@@H](CC(N)=O)C(=O)N[C@H]2C(=O)N[C@H]3C(=O)N[C@H](C(=O)N[C@H](C(=O)O)c4cc(O)cc(O)c4-c4cc3ccc4O)[C@H](O[C@H]3C[C@](C)(N)[C@@H](O)[C@H](C)O3)c3ccc(c(Cl)c3)Oc3cc2cc(c3O[C@@H]2O[C@H](CO)[C@@H](O)[C@H](O)[C@H]2O[C@H]2C[C@](C)(NCc3ccc(-c4ccc(Cl)cc4)cc3)[C@@H](O)[C@H](C)O2)Oc2ccc(cc2Cl)[C@H]1O [oritavancin, N-(4-(4-chlorophenyl)benzyl)A82846B]
Inhibition zone diameter (VISA Mu50 (ATCC 700699); Mu50, 12.5 μg in 4% P80/Span 80 (1:1), calcium alginate swab, dried overnight): no zone
Inhibition zone diameter (VISA Mu50 (ATCC 700699); Mu50, 12.5 μg in 4% P80/Span 80 (1:1), cotton swab, dried overnight, estimate of diameter): no zone
Inhibition zone diameter (VISA Mu50 (ATCC 700699); Mu50, 25 μg (20 μl of 1.25 mg/ml) in 4% P80/Span 80 (1:1), calcium alginate swab, dried overnight): no zone
Inhibition zone diameter (VISA Mu50 (ATCC 700699); Mu50, 20 μl of 1.25 mg/ml oritavancin in 5% Brij 30): no zone
zone of inhibition at 360 µg/disc (VISA Mu50 (ATCC 700699); Staphylococcus aureus, 3 h, 360 μg oritavancin, excipient 10% HPCD, disks made same day, 3 h prediffusion, average of 2 disks, read-out: Average zone diameter): 17.3 mm
zone of inhibition at 360 µg/disc (VISA Mu50 (ATCC 700699); Staphylococcus aureus, 192 h, 360 μg in 5% P80, Experiment 2, disks stored 8 days, no prediffusion, read-out: Zone diameter (mm ± SD)): 13 mm
zone of inhibition at 360 µg/disc (VISA Mu50 (ATCC 700699); Staphylococcus aureus, 336 h, 360 μg in 5% P80, Experiment 1, disks stored 14 days, no prediffusion, read-out: Zone diameter (mm ± SD)): 13.5 ± 0.7 mm
zone of inhibition at 360 µg/disc (VISA Mu50 (ATCC 700699); Staphylococcus aureus, 360 μg in 5% P80, Average of experiments, no prediffusion, read-out: Zone diameter (mm ± SD)): 13.3 ± 0.5 mm
zone of inhibition at 360 µg/disc (VISA Mu50 (ATCC 700699); Staphylococcus aureus, 360 μg in 5% P80, Average of experiments, prediffusion, read-out: Zone diameter (mm ± SD)): 14.3 ± 0.3 mm
zone of inhibition at 360 µg/disc (VISA Mu50 (ATCC 700699); Staphylococcus aureus, 360 μg in 5% P80, Experiment 1, disks stored 14 days, 3 h prediffusion at room temperature, read-out: Zone diameter (mm ± SD)): 14.5 mm
zone of inhibition at 360 µg/disc (VISA Mu50 (ATCC 700699); Staphylococcus aureus, 360 μg in 5% P80, Experiment 2, disks stored 8 days, 3 h prediffusion at room temperature, read-out: Zone diameter (mm ± SD)): 14 mm
zone of inhibition at 360 µg/disc (VISA Mu50 (ATCC 700699); Staphylococcus aureus, 360 μg oritavancin, excipient 5% P80, disks stored 5 days at room temperature, 3 h prediffusion, average of 2 disks, read-out: Average zone diameter): 15 mm
zone of inhibition at 25 µg/disc (VISA Mu50 (ATCC 700699); Staphylococcus aureus, Mu50, 25 μg in 4% P80/Span 80 (1:1), cotton swab, dried overnight, estimate of diameter): 7 mm
zone of inhibition at 50 µg/disc (VISA Mu50 (ATCC 700699); Staphylococcus aureus, Mu50, 50 μg in 4% P80/Span 80 (1:1), calcium alginate swab, dried overnight, read-out: Inhibition zone diameter): 7 mm
zone of inhibition at 50 µg/disc (VISA Mu50 (ATCC 700699); Staphylococcus aureus, Mu50, 50 μg in 4% P80/Span 80 (1:1), cotton swab, dried overnight, estimate of diameter): 10 mm
zone of inhibition at 50 µg/disc (VISA Mu50 (ATCC 700699); Staphylococcus aureus, Mu50, 50 μg, 4% P80/Span 80 ratio 50:50, dried overnight, estimate of diameter): 10 mm
zone of inhibition at 50 µg/disc (VISA Mu50 (ATCC 700699); Staphylococcus aureus, Mu50, 50 μg, 4% P80/Span 80 ratio 60:40, dried overnight, estimate of diameter): 11 mm
zone of inhibition at 50 µg/disc (VISA Mu50 (ATCC 700699); Staphylococcus aureus, Mu50, 50 μg, 4% P80/Span 80 ratio 70:30, dried overnight, estimate of diameter): 12 mm
zone of inhibition at 50 µg/disc (VISA Mu50 (ATCC 700699); Staphylococcus aureus, Mu50, 50 μg, 4% P80/Span 80 ratio 80:20, dried overnight, estimate of diameter): 12 mm
zone of inhibition at 50 µg/disc (VISA Mu50 (ATCC 700699); Staphylococcus aureus, Mu50, 50 μg, 4% P80/Span 80 ratio 90:10, dried overnight, estimate of diameter): 12 mm
zone of inhibition at 100 µg/disc (VISA Mu50 (ATCC 700699); [1]): 8 mm
zone of inhibition at 100 µg/disc (VISA Mu50 (ATCC 700699); [2]): 11 mm
zone of inhibition at 200 µg/disc (VISA Mu50 (ATCC 700699); [1]): 8 mm
zone of inhibition at 200 µg/disc (VISA Mu50 (ATCC 700699); [2]): 10 mm
zone of inhibition at 1250 µg/mL (VISA Mu50 (ATCC 700699); Staphylococcus aureus, Mu50, 20 μl of 1.25 mg/ml oritavancin in 1% poly(ethylene glycol) sorbitol hexaoleate, read-out: Inhibition zone diameter): 8 mm
zone of inhibition at 1250 µg/mL (VISA Mu50 (ATCC 700699); Staphylococcus aureus, Mu50, 20 μl of 1.25 mg/ml oritavancin in 5% Merpol SE, read-out: Inhibition zone diameter): 9 mm
Inhibition zone diameter (MRSA Q141067): 22 mm
zone of inhibition at 1250 µg/mL (MRSA Q141067; [3]): 21 mm
Inhibition zone diameter (MRSA Q670505): 18, 18 mm
zone of inhibition at 1250 µg/mL (MRSA Q670505; [3]): 18 mm
Inhibition zone diameter (MRSA Q670607): 22 mm
zone of inhibition at 1250 µg/mL (MRSA Q670607; [3]): 21 mm
Inhibition zone diameter (MRSA U260847): 22 mm
zone of inhibition at 1250 µg/mL (MRSA U260847; [3]): 21 mm
Inhibition zone diameter (MRSA U933237): 22 mm
zone of inhibition at 1250 µg/mL (MRSA U933237; [3]): 21 mm
Inhibition zone diameter (MRSA V257345): 22 mm
zone of inhibition at 1250 µg/mL (MRSA V257345; [3]): 21 mm
Inhibition zone diameter (MSSA S815246): 22 mm
zone of inhibition at 1250 µg/mL (MSSA S815246; [4]): 21 mm
Inhibition zone diameter (MSSA S815247): 21 mm
zone of inhibition at 1250 µg/mL (MSSA S815247; [4]): 20 mm
Inhibition zone diameter (MSSA T811355): 22 mm
zone of inhibition at 1250 µg/mL (MSSA T811355; [4]): 21 mm
Inhibition zone diameter (MSSA U781969): 23 mm
zone of inhibition at 1250 µg/mL (MSSA U781969; [4]): 22 mm
Inhibition zone diameter (MSSA U933236): 22 mm
zone of inhibition at 1250 µg/mL (MSSA U933236; [4]): 21 mm
Inhibition zone diameter (hVISA NRS36; NRS36): 12 mm
zone of inhibition at 25 µg/disc (hVISA NRS36; Staphylococcus aureus, NRS36, read-out: Inhibition zone diameter, NRS36): 11 mm
